Test results from publication PMC9785280, “Synthesis, Antiproliferative Evaluation and QSAR Analysis of Novel Halogen- and Amidino-Substituted Benzothiazoles and Benzimidazoles” (International Journal of Molecular Sciences, 2022).

Assays:
[1] = test system: HeLa (cervical adenocarcinoma) cells; test: MTT antiproliferative assay, HeLa; format: cell-based; conditions: Homo sapiens, 72 h, mean ± SD of three independent experiments
Description: (§1) The growth inhibition activity was assessed according to the slightly modified procedure performed at the National Cancer Institute, Developmental Therapeutics Program.
(§2) Examined compounds were dissolved in DMSO (1 × 10^−2 M). The experiments were carried out on seven human tumor cell lines and two normal cell lines. The following cell lines were used: HeLa (human cervical adenocarcinoma; purchased from ATCC), CaCo-2 (human colorectal adenocarcinoma), HuT78 (T-cell lymphoma), THP-1 (acute monocytic leukemia), SW620 (colorectal adenocarcinoma, metastatic), MDA-MB-231 (human breast adenocarcinoma), HL60 (promyelocytic leukemia cell line), foreskin fibroblast cells (BJ) and MDCK1 (Madine–Darby canine kidney fibroblast like cells). MDCK1 cells were used between 24 and 26 passages.
(§3) Adherent cells were cultured in the Dulbecco’s modified Eagle medium—DMEM (Gibco, EU) supplemented with 10 % heat-inactivated fetal bovine serum (FBS, Gibco, EU), 2 mM glutamine, and 100 U/0.1 mg penicillin/streptomycin. Cells on suspension were cultured in RPMI 1640 (Gibco, EU) medium supplemented with 10 % FBS (Gibco, EU), 2 mM glutamine, 1 mM sodium pyruvate, 10 mM HEPES. Cells were grown in humidified atmosphere under the conditions of 37 °C/5% of CO2 gas in the CO2 incubator (IGO 150 CELLlife^TM, JOUAN, Thermo Fisher Scientific, Waltham, MA, USA). A erythrosin B (Sigma-Aldrich, St. Louis, MO, USA) dye exclusion method was used to assess cell viability before plating.
(§4) Adherent cells (HeLa, CaCo-2, MCF-7 and MDCK-1) were plated in 96-well flat bottom plates (Greiner, Frickenhausen, Austria) at a concentration of 2 × 10^4 cells/mL. Suspension cells (THP-1 and HuT78) were plated in 96-well microtiter plates (Sarstead, Newton, USA) at a concentration of 1 × 10^5 cells/mL. Twenty-four hours later, cells were treated with test agents in […] 10-fold dilutions ([…] to 10^−4 M) and incubated for further 72 h. Working dilutions were freshly prepared on the day of testing. The solvent was also tested for eventual inhibitory activity by adjusting its concentration to be the same as in working concentrations. After 72 h of incubation, the cell growth rate was evaluated by performing the MTT assay, which detects dehydrogenase activity in viable cells. For this purpose, upon completion of the incubation period, growth medium was discarded and 50 μL of MTT was added to each well at a concentration of 5 mg/mL. After four hours of incubation at 37 °C, water insoluble MTT-formazan crystals were dissolved in 150 μL of dimethyl-sulfoxide (DMSO) for adherent cells, and in 10 % SDS with 0.01 M/L HCl for cells grown in suspension. The absorbance (OD, optical density) was measured on a microplate reader (iMark, BIO RAD, Hercules, CA, USA) at 595 nm.
(§5) Percent of life cells was calculated as follows: % = OD (sample)–OD (background)/OD (control)–OD (background) × 100.
(§6) Optical density (OD) of background for adherent cells is the OD of MTT solution and DMSO; OD (background) for suspension cells is OD of the culture medium with MTT and 10% SDS with 0.01 M/L HCl; OD (control) is the OD of the cells growth without tested compounds.
(§7) Calculation of GI50 value curves and QC analysis is performed by using the Excel tools and GraphPadPrism software (La Jolla, CA), v. 5.03. Briefly, individual concentration effect curves are generated by plotting the logarithm of the concentration of tested compounds(X) vs. corresponding percent inhibition values (Y) using least squares fit. The best fit GI50 values are calculated using Log (inhibitor) versus normalized response—Variable slope equation, where Y Ľ 100/(1 ţ 10 ((LogIC50 _ X) * HillSlope)). QC criteria parameters (Z0, S:B, R2, HillSlope) were checked for every GI50 curve.

[2] = test system: CaCo-2 (colon adenocarcinoma) cells; test: MTT antiproliferative assay, CaCo-2; format: cell-based, human; conditions: for IC50: Homo sapiens, Caco-2, 72 h, MTT, mean ± SD of three independent experiments
Description: as §1, §2, §3, §4, §5, §6
Calculation of GI50 value curves and QC analysis is performed by using the Excel tools and GraphPadPrism software (La Jolla, CA), v. 5.03. Briefly, individual concentration effect curves are generated by plotting the logarithm of the concentration of tested compounds(X) vs. corresponding percent inhibition values (Y) using least squares fit. […] QC criteria parameters (Z0, S:B, R2, HillSlope) were checked for every GI50 curve.

[3] = test system: HuT78 (T-cell lymphoma) cells; test: MTT antiproliferative assay, HuT78; format: cell-based, human; conditions: for IC50: Homo sapiens, HuT78, 72 h, 72 h, MTT, mean ± SD of three independent experiments; for SI (BJ) HuT78: SI = IC50 BJ / IC50 HuT78; for SI (MDCK) HuT78: SI = IC50 MDCK1 / IC50 HuT78
Description: as §1, §2, §3, §4, §5, §6, §7

human fibroblasts (BJ) = test: MTT antiproliferative assay, normal BJ fibroblasts; format: cell-based; conditions: Homo sapiens, Fibroblast, 72 h, MTT, mean ± SD of three independent experiments; normal cells
Description: as §1, §2, §3, §4, §5, §6, §7

[4] = test system: MDCK1 (Madin–Darby canine kidney) cells; test: MTT antiproliferative assay, non-tumor MDCK1 cells; format: cell-based; conditions: Canis lupus familiaris, MDCK1, 72 h, mean ± SD of three independent experiments, normal cells
Description: as §1, §2, §3, §4, §5, §6, §7

| SMILES | IC50 [1] [µM] | IC50 [2] [µM] | IC50 [3] [µM] | SI (BJ) HuT78 [3] | IC50 (human fibroblasts (BJ)) [µM] | IC50 [4] [µM] | melting point [°C] | SI (MDCK) HuT78 [3] | SI (BJ) CaCo-2 ([2]; SI = IC50 BJ / IC50 CaCo-2) |
| --- | --- | --- | --- | --- | --- | --- | --- | --- | --- |
| COc1cc(-c2nc3ccc(C4=NCCN4)cc3s2)ccc1OCc1cn(Cc2ccccc2)nn1.Cl [37c, 2-(3-Methoxy-4-((1-benzyl-1H-1,2,3-triazol-4-yl)methoxy)phenyl)-6-(4,5-dihydro-1H-imidazol-2-yl)benzothiazole hydrochloride] | 3.4 ± 0.2 | 4.5 ± 2.7 | 3 ± 1 | 1.6 | 4.8 ± 3.5 | 2.6 ± 0.1 | > 240 | – | – |
| Fc1cc(-c2nc3ccccc3s2)ccc1OCc1c[nH]nn1 [23b, 2-(3-Fluoro-4-((1H-1,2,3-triazol-4-yl)methoxy)phenyl)benzothiazole] | 34.9 ± 14.8 | 56 ± 14.6 | 17.1 ± 7.7 | 2.34 | 40.5 ± 17.2 | 27.4 ± 4.2 | 185 to 189 | 1.6 | – |
| COc1cc(-c2nc3ccccc3s2)ccc1OCc1ccccn1 [20c] | > 100 | 89.2 ± 16.8 | 64.7 ± 11.3 | 1.55 | > 100 | 85.9 ± 15.7 | 110 to 115 | 1.33 | 1.12 |
| Fc1cc(-c2nc3ccc(Cl)cc3s2)ccc1OCc1cn(Cc2ccccc2)nn1 [24b, 6-Chloro-2-(3-fluoro-4-((1-benzyl-1H-1,2,3-triazol-4-yl)methoxy)phenyl)benzothiazole] | > 100 | > 100 | > 100 | – | > 100 | 8.8 ± 8.3 | 181 to 186 | – | – |
| Clc1ccc2nc(-c3ccc(OCc4c[nH]nn4)cc3)sc2c1 [21a, 6-Chloro-2-(4-((1H-1,2,3-triazol-4-yl)methoxy)phenyl)benzothiazole] | > 100 | > 100 | 6.8 ± 6.2 | 14.7 | > 100 | 12.6 ± 4.8 | 220 to 223 | 1.85 | – |
| O=C(COc1ccc(-c2nc3ccccc3s2)cc1F)c1ccccc1 [17b, 2-(3-Fluoro-4-(2-oxo-2-phenylethoxy)phenyl)benzothiazole] | > 100 | > 100 | > 100 | – | > 100 | > 100 | 174 to 177 | – | – |
| O=C(COc1ccc(-c2nc3ccccc3s2)cc1)c1ccccc1 [17a, 2-(4-(2-Oxo-2-phenylethoxy)phenyl)benzothiazole] | > 100 | > 100 | > 100 | – | > 100 | > 100 | 150 to 155 | – | – |
| COc1cc(-c2nc3ccc(C4=NCCN4)cc3s2)ccc1OCc1ccccn1.Cl [35c, 2-(3-Methoxy-4-(pyridin-2-ylmethoxy)phenyl)-6-(4,5-dihydro-1H-imidazol-2-yl)benzothiazole hydrochloride] | 21.8 ± 5.5 | 18.2 ± 3.3 | 6.2 ± 2.7 | – | 6.7 ± 4.9 | 7.5 ± 3.5 | 219 to 223 | – | – |
| COc1cc(-c2nc3ccccc3s2)ccc1OCc1cn(Cc2ccccc2)nn1 [26c, 2-(3-Methoxy-4-((1-benzyl-1H-1,2,3-triazol-4-yl)methoxy)phenyl)benzothiazole] | 23.3 ± 15.3 | > 100 | 23.7 ± 5.2 | 3.24 | 76.7 ± 27.7 | 8.5 ± 6.4 | 170 to 173 | – | – |
| COc1cc(-c2nc3ccc(F)cc3s2)ccc1OCc1c[nH]nn1 [22c, 6-Fluoro-2-(3-methoxy-4-((1H-1,2,3-triazol-4-yl)methoxy)phenyl)benzothiazole] | > 100 | > 100 | 38.1 ± 23.4 | 2.62 | > 100 | 0.7 ± 0.3 | 196 to 199 | – | – |
| c1ccc2sc(-c3ccc(OCc4c[nH]nn4)cc3)nc2c1 [23a, 2-(4-((1H-1,2,3-triazol-4-yl)methoxy)phenyl)benzothiazole] | 52.4 ± 18.4 | 95.6 ± 6.6 | 19 ± 4 | 5.26 | > 100 | 40.7 ± 5.7 | 204 to 207 | 2.14 | – |
| Fc1ccc2nc(-c3ccc(OCc4cn(Cc5ccccc5)nn4)cc3)sc2c1 [25a, 6-Fluoro-2-(4-((1-benzyl-1H-1,2,3-triazol-4-yl)methoxy)phenyl)benzothiazole] | > 100 | > 100 | > 100 | – | 10 ± 0.01 | 8.2 ± 5.8 | 176 to 180 | – | – |
| Cl.O=C(COc1ccc(-c2nc3ccc(C4=NCCN4)cc3s2)cc1F)c1ccccc1 [34b, 2-(3-Fluoro-4-(2-oxo-2-phenylethoxy)phenyl)-6-(4,5-dihydro-1H-imidazol-2-yl)benzothiazole hydrochloride] | 4.5 ± 4.3 | 7 ± 5.4 | 2.1 ± 0.2 | – | 11.2 ± 6 | 2.2 ± 0.3 | > 240 | – | – |
| O=C(COc1ccc(-c2nc3ccc(C4=NCCCN4)cc3s2)cc1)c1ccccc1 [38a] | 19.7 ± 3.1 | 25.4 ± 3.5 | 16.2 ± 5.5 | 1.39 | 22.6 ± 4.6 | 27.1 ± 3.4 | – | 1.67 | – |
